Assay: pKa of in situ prepared complexes by pH-potentiometry
Assay type: physicochemical
Conditions: I = 0.20 M KNO3
Excerpt: The results, shown in Table 2, indicate good agreement between the data obtained by the different methods. It should be noted that these processes show overlap in all cases, and therefore, the assignment of the pKa values to the given moieties cannot be made reliably. However, by comparing the spectral changes with those observed for HQ and other simple derivatives,[25] it can be concluded that the lower pKa likely belongs to the deprotonation of the aqua coligand.
The pH-potentiometric measurements were carried out at 25.0 ± 0.1 °C in water in the pH range between 2.0 and 11.5 and at a constant ionic strength of 0.20 M KNO3. The titrations were performed in a carbonate-free KOH solution (0.20 M). The exact concentrations of the HNO3 and KOH solutions were determined by pH-potentiometric titrations. An Orion 710A pH-meter equipped with a Metrohm combined electrode (type 6.0234.100) and a Metrohm 665 Dosimat buret were used for this purpose. […] The average water ionization constant, pKw, was determined as 13.76 ± 0.01, which is in good agreement with the literature data.[67] The initial volume of the samples was 10.0 mL. […] Samples were degassed by bubbling purified argon through them for about 10 min prior to the measurements, and the inert gas was also passed over the solutions during the titrations. The computer program Hyperquad2013[64] was utilized to establish the stoichiometry of the species and to calculate the equilibrium constants.

## [RhCp*(HQCl-Pip)Cl]Cl [(3)]
  pKa (H2O): 9.39 ± 0.07
  pKa (Npyr/pipH+): 10.41 ± 0.10

— publication PMC11653257, “Organometallic Half-Sandwich Complexes of 8-Hydroxyquinoline-Derived Mannich Bases with Enhanced Solubility: Targeting Multidrug Resistant Cancer” (Inorganic Chemistry, 2024)
